The subject of this data set is CCRIS mutagenicity, Ames/micronucleus/aberration tests. In words: CCRIS mutagenicity studies.
[1] abbreviates: Test System: AMES SALMONELLA TYPHIMURIUM, Strain/Indicator: TA98, Metabolic Activation: NONE, Method: STANDARD PLATE.
Setting [2] is: Test System: AMES SALMONELLA TYPHIMURIUM, Strain/Indicator: TA100, Metabolic Activation: NONE, Method: STANDARD PLATE.
Setting [3] is: Test System: AMES SALMONELLA TYPHIMURIUM, Strain/Indicator: TA100, Metabolic Activation: RAT, LIVER, S-9, AROCLOR 1254, Method: STANDARD PLATE.
The mark [4] stands for this setting: Test System: AMES SALMONELLA TYPHIMURIUM, Strain/Indicator: TA1537, Metabolic Activation: NONE, Method: STANDARD PLATE.
The mark [5] stands for this setting: Test System: AMES SALMONELLA TYPHIMURIUM, Strain/Indicator: TA100, Metabolic Activation: RAT, LIVER, S-9, KC500 OR PHENOBARBITAL, Method: LIQUID SUSPENSION
Setting [6] is: Test System: AMES SALMONELLA TYPHIMURIUM, Strain/Indicator: TA98, Metabolic Activation: S-9, Method: STANDARD PLATE.
Setting [7] is: Test System: AMES SALMONELLA TYPHIMURIUM, Strain/Indicator: TA100, Metabolic Activation: S-9, Method: STANDARD PLATE.
[8] abbreviates: Test System: AMES SALMONELLA TYPHIMURIUM, Strain/Indicator: TA100, Metabolic Activation: NONE, Method: PREINCUBATION

Activity calls are given as the source filed them. How the calls were made is not given here.

For `OCCNc1ccc(N=Nc2ccc(N(CCO)CCO)cc2)cc1`, the mutagenic call by setting is: (Test System: AMES SALMONELLA TYPHIMURIUM, Strain/Indicator: TA98, Metabolic Activation: HAMSTER, LIVER, S-9, AROCLOR 1254, Method: STANDARD PLATE) “inactive; negative”; under setting [1], “inactive; negative”; (Test System: AMES SALMONELLA TYPHIMURIUM, Strain/Indicator: TA98, Metabolic Activation: RAT, LIVER, S-9, AROCLOR 1254, Method: PREINCUBATION) “inactive; negative”; (Test System: AMES SALMONELLA TYPHIMURIUM, Strain/Indicator: TA98, Metabolic Activation: RAT, LIVER, S-9, AROCLOR 1254, Method: STANDARD PLATE) “inactive; negative”; under setting [2], “inactive; negative”; under setting [3], “inactive; negative”. For the same compound, the mutagenic call by setting is: (Test System: AMES SALMONELLA TYPHIMURIUM, Strain/Indicator: TA1535, Metabolic Activation: NONE, Method: STANDARD PLATE) “inactive; negative”; (Test System: AMES SALMONELLA TYPHIMURIUM, Strain/Indicator: TA1535, Metabolic Activation: RAT, LIVER, S-9, AROCLOR 1254, Method: STANDARD PLATE) “inactive; negative”; under setting [4], “inactive; negative”; (Test System: AMES SALMONELLA TYPHIMURIUM, Strain/Indicator: TA1537, Metabolic Activation: RAT, LIVER, S-9, AROCLOR 1254, Method: STANDARD PLATE) “inactive; negative”; (Test System: AMES SALMONELLA TYPHIMURIUM, Strain/Indicator: TA1538, Metabolic Activation: NONE, Method: STANDARD PLATE) “inactive; negative”; (Test System: AMES SALMONELLA TYPHIMURIUM, Strain/Indicator: TA1538, Metabolic Activation: RAT, LIVER, S-9, AROCLOR 1254, Method: STANDARD PLATE) “inactive; negative”.
For `O[C@H]1c2ccccc2-c2cc3c(ccc4ccccc43)nc2[C@@H]1O`, the mutagenic call by setting is: (Test System: AMES SALMONELLA TYPHIMURIUM, Strain/Indicator: TA98, Metabolic Activation: GUINEA PIG, LIVER, S-9, 3-METHYLCHOLANTHRENE, Method: STANDARD PLATE) “inactive; negative”; (Test System: AMES SALMONELLA TYPHIMURIUM, Strain/Indicator: TA100, Metabolic Activation: GUINEA PIG, LIVER, S-9, 3-METHYLCHOLANTHRENE, Method: STANDARD PLATE) “inactive; negative”; (Test System: CHINESE HAMSTER V-79, Strain/Indicator: V-79/6-THIOGUANINE, Metabolic Activation: GUINEA PIG, LIVER, S-9, 3-METHYLCHOLANTHRENE) “active; positive”.
Take `Cn1c2ccccc2c2ccc([N+](=O)[O-])cc21`: the mutagenic call is “active; positive” under setting [1]; “active; positive” (Test System: AMES SALMONELLA TYPHIMURIUM, Strain/Indicator: TA98, Metabolic Activation: RAT LIVER S-9, AROCLOR 1254, Method: STANDARD PLATE); “active; positive” under setting [2]; “active; positive” (Test System: AMES SALMONELLA TYPHIMURIUM, Strain/Indicator: TA100, Metabolic Activation: RAT LIVER S-9, AROCLOR 1254, Method: STANDARD PLATE).
For the compound `O=[N+]([O-])c1ccc(-c2cscn2)o1`, the mutagenic call under setting [5] is “active; positive”.
Take `COc1cc2ccnc3c2c(c1OC)-c1ccccc1C3=O`: the mutagenic call (Test System: AMES SALMONELLA TYPHIMURIUM, Strain/Indicator: TA100, Metabolic Activation: RAT, LIVER, S-9, PHENOBARBITAL AND BETA-NAPHTHOFLAVONE, Method: PREINCUBATION) is “active; positive”.
On to `COc1ccc2c3c(cccc13)OC([N+](=O)[O-])=C2`, for which the mutagenic call under setting [1] is “inactive; negative”, the mutagenic call under setting [6] was “inactive; negative”, the mutagenic call under setting [2] was “active; positive” and the mutagenic call under setting [7] is “inactive; negative”.
Regarding `Oc1cc(O)c2ccccc2c1`, the mutagenic call reads like this: (Test System: AMES SALMONELLA TYPHIMURIUM, Strain/Indicator: TA98, Metabolic Activation: NONE, Method: PREINCUBATION) “active; positive”; under setting [8], “active; positive”; (Test System: AMES SALMONELLA TYPHIMURIUM, Strain/Indicator: TA104, Metabolic Activation: NONE, Method: PREINCUBATION) “active; positive”; (Test System: AMES SALMONELLA TYPHIMURIUM, Strain/Indicator: TA1535, Metabolic Activation: NONE, Method: PREINCUBATION) “inactive; negative”; (Test System: AMES SALMONELLA TYPHIMURIUM, Strain/Indicator: TA1537, Metabolic Activation: NONE, Method: PREINCUBATION) “inactive; negative”; (Test System: AMES SALMONELLA TYPHIMURIUM, Strain/Indicator: TA1538, Metabolic Activation: NONE, Method: PREINCUBATION) “inactive; negative”. In addition, the mutagenic call runs as follows: (Test System: AMES SALMONELLA TYPHIMURIUM, Strain/Indicator: TA2637, Metabolic Activation: NONE, Method: PREINCUBATION) “active; positive”; (Test System: AMES SALMONELLA TYPHIMURIUM, Strain/Indicator: TA2659, Metabolic Activation: NONE, Method: PREINCUBATION) “inactive; negative”.
For the compound `c1ccc(N=Nc2ccccc2)cc1`, the mutagenic call was “inactive; negative” under setting [8]; “active; positive” (Test System: AMES SALMONELLA TYPHIMURIUM, Strain/Indicator: TA100, Metabolic Activation: RAT, LIVER, MICROSOMES, AROCLOR 1254, Method: PREINCUBATION); “inactive; negative” (Test System: AMES SALMONELLA TYPHIMURIUM, Strain/Indicator: TA100, Metabolic Activation: RAT, LIVER, MICROSOMES, AZOBENZENE, Method: PREINCUBATION); “inactive; negative” (Test System: AMES SALMONELLA TYPHIMURIUM, Strain/Indicator: TA100, Metabolic Activation: RAT, LIVER, MICROSOMES, Method: PREINCUBATION); “active; positive” under setting [3]; “active; positive” (Test System: AMES SALMONELLA TYPHIMURIUM, Strain/Indicator: TA100, Metabolic Activation: RAT, LIVER, S-9, POLYCHLORINATED BIPHENYLS, Method: PREINCUBATION).
Consider `COc1c(C(=O)O)c(=O)[nH]c2ccccc12`, for which the mutagenic call is, setting by setting: under setting [1], “inactive; negative”; (Test System: AMES SALMONELLA TYPHIMURIUM, Strain/Indicator: TA98, Metabolic Activation: RAT LIVER S-9, PHENOBARTITAL, Method: STANDARD PLATE) “inactive; negative”.
`COc1ccc(Nc2c3ccccc3nc3ccccc23)cc1`: under setting [4], the mutagenic call was “active; positive”.
Take `Nc1ccc(-c2ccc(N)cc2[N+](=O)[O-])cc1`: the mutagenic call (Test System: AMES SALMONELLA TYPHIMURIUM, Strain/Indicator: TA98(1,8-DNP6), Metabolic Activation: NONE, Method: STANDARD PLATE) is “active; positive”; the mutagenic call (Test System: AMES SALMONELLA TYPHIMURIUM, Strain/Indicator: TA98(1,8-DNP6), Metabolic Activation: S-9, Method: STANDARD PLATE) is “active; positive”; the mutagenic call under setting [1] is “active; positive”; the mutagenic call under setting [6] is “active; positive”; the mutagenic call under setting [2] was “inactive; negative”; the mutagenic call under setting [7] was “active; positive”.
For `CC(O)CC(=O)Nc1ccc(O)cc1` (centres undefined), the mutagenic call runs as follows: (Test System: AMES SALMONELLA TYPHIMURIUM, Strain/Indicator: TA100, Metabolic Activation: HAMSTER, LIVER, S-9, KANECHLOR 400, Method: PREINCUBATION) “inactive; negative”; under setting [8], “inactive; negative”.
`C/[N+]([O-])=N/CO`: the mutagenic call is “active; positive” (Test System: AMES SALMONELLA TYPHIMURIUM, Strain/Indicator: G46, Metabolic Activation: NONE, Method: STANDARD PLATE); “active; positive” under setting [5]; “active; positive” (Test System: AMES SALMONELLA TYPHIMURIUM, Strain/Indicator: TA1535, Metabolic Activation: RAT, LIVER, S-9, KC500 OR PHENOBARBITAL, Method: LIQUID SUSPENSION); “active; positive” (Test System: CHINESE HAMSTER V-79, Strain/Indicator: V-79/OUABAIN, Metabolic Activation: NONE, Method: STANDARD PLATE).
As for `CN(C)CCCNc1c2ccccc2nc2c(N(C)C)ccc([N+](=O)[O-])c12`, the mutagenic call is “active; positive” under setting [1] and “active; positive” under setting [2].
`ClCC1(CCl)[C@H]2CC(Cl)(Cl)[C@]1(CCl)[C@@H](Cl)[C@@H]2Cl`: the mutagenic call under setting [8] is “inactive; negative”.
For the compound `Brc1ccc2c(c1)[C@H]1O[C@H]1[C@H]1CCCC[C@H]21`, the mutagenic call reads like this: under setting [1], “inactive; negative”; under setting [2], “inactive; negative”.
